Reference: ChEMBL document CHEMBL1909046, “DrugMatrix in vitro pharmacology data”

How the values were obtained:
Substance-P receptor = Substance-P receptor (Homo sapiens, UniProt P25103); assay type: cell membranes, CHO, Membrane; conditions: cho; also: in other assays of this panel Not Active means under 50% inhibition at 10 µM
[1] = target: T1, C-X-C chemokine receptor type 2 (Homo sapiens, UniProt P25025); assay type: cell membranes, Membrane; conditions: cho-k1; also: in other assays of this panel Not Active means under 50% inhibition at 10 µM
T1 sequence (P25025 whole entry): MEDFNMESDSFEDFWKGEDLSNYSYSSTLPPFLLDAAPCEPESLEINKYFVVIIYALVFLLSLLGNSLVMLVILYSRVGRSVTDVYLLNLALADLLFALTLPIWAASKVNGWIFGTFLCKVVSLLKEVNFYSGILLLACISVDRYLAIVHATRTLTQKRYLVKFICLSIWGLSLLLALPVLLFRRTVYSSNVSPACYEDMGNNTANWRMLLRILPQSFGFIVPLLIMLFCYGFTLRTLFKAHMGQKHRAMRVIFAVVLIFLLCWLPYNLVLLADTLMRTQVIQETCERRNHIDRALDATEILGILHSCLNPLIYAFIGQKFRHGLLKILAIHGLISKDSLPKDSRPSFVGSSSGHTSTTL

D(3) dopamine receptor = D(3) dopamine receptor (Homo sapiens, UniProt P35462); assay: DRUGMATRIX: Dopamine D3 radioligand binding (ligand: [3H] Spiperone); assay type: cell membranes, CHO, Membrane; conditions: cho
Chain of D(3) dopamine receptor (P35462 whole entry): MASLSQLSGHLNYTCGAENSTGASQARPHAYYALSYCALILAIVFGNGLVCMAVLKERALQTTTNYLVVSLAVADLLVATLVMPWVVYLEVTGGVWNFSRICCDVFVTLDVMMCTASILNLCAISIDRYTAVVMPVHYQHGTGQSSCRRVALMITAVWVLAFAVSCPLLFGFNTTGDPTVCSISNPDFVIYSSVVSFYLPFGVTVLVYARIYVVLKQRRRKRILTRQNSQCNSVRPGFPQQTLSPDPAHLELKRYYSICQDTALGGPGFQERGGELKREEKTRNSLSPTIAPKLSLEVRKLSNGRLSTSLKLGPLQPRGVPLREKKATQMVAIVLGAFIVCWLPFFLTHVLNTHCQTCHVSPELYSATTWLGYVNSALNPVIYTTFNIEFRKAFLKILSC

[2] = DRUGMATRIX: GABAA, Chloride Channel, TBOB radioligand binding (ligand: [3H] TBOB); assay type: cell membranes, Rattus norvegicus, Wistar, Cerebral cortex, Membrane; conditions: Not Active = under 50% inhibition at 10 µM
[3] = DRUGMATRIX: Glutamate, NMDA, Agonism radioligand binding (ligand: [3H] CGP-39653); assay type: cell membranes, Rattus norvegicus, Wistar, Cerebral cortex, Membrane; conditions: Not Active = under 50% inhibition at 10 µM
[4] = DRUGMATRIX: Glutamate, NMDA, Phencyclidine radioligand binding (ligand: [3H] TCP); assay type: cell membranes, Rattus norvegicus, Wistar, Cerebral cortex, Membrane; conditions: Not Active = under 50% inhibition at 10 µM
Histamine H2 receptor = Histamine H2 receptor (Homo sapiens, UniProt P25021); assay type: cell membranes, CHO-K1, Membrane; conditions: cho-k1; also: in other assays of this panel Not Active means under 50% inhibition at 10 µM
Chain of Histamine H2 receptor (P25021 whole entry): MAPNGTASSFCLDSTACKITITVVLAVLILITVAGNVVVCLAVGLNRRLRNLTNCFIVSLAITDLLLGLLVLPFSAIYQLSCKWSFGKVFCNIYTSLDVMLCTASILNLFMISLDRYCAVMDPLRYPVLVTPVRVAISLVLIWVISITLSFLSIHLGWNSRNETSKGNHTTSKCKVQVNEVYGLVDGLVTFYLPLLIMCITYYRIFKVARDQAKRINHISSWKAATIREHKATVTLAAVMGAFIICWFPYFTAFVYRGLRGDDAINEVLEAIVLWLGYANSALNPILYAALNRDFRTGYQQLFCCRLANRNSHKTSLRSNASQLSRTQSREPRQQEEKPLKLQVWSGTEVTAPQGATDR

[5] = DRUGMATRIX: Imidazoline I2, Central radioligand binding (ligand: [3H] Idazoxan); assay type: cell membranes, Rattus norvegicus, Wistar, Cerebral cortex, Membrane; conditions: Not Active = under 50% inhibition at 10 µM
Melanocortin receptor 4 = Melanocortin receptor 4 (Homo sapiens, UniProt P32245); assay type: cell membranes, Membrane; conditions: hek293; also: in other assays of this panel Not Active means under 50% inhibition at 10 µM
Chain of Melanocortin receptor 4 (P32245 whole entry): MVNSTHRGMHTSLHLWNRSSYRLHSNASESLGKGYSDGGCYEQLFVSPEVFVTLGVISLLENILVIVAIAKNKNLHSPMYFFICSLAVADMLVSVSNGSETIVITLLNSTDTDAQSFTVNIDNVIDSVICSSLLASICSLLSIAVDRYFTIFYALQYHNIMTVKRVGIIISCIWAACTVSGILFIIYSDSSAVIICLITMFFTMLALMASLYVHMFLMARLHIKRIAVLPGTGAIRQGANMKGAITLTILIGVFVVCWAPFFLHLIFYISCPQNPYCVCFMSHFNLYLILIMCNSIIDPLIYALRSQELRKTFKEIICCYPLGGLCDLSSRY

[6] = target: T2, Neuropeptide Y receptor type 2 (Homo sapiens, UniProt P49146); assay type: cell membranes, Membrane; conditions: kan-ts; also: in other assays of this panel Not Active means under 50% inhibition at 10 µM
T2 sequence (P49146 whole entry): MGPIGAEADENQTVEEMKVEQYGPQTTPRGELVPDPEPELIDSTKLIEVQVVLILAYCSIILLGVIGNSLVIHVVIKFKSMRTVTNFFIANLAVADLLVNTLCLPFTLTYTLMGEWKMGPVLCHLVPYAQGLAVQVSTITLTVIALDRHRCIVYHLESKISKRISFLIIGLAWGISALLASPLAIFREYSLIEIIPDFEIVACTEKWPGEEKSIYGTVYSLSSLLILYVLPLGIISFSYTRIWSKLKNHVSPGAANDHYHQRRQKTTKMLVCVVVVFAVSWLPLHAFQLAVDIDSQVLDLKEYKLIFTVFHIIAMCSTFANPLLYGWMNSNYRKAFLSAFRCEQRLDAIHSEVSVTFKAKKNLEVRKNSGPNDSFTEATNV

[7] = DRUGMATRIX: Phosphodiesterase PDE3 enzyme inhibition (substrate: [3H]cAMP + cAMP); assay type: tissue-based, Homo sapiens; conditions: platelet; Not Active = under 50% inhibition at 10 µM
[8] = DRUGMATRIX: Platelet-Derived Growth Factor (PDGF) radioligand binding (ligand: [125I] PDGF); assay type: cell-based; conditions: nih3t3; Not Active = under 50% inhibition at 10 µM
[9] = target: 5-hydroxytryptamine receptor 1B (Rattus norvegicus, UniProt P28564); assay type: cell membranes, Wistar, Cerebral cortex, Membrane; also: in other assays of this panel Not Active means under 50% inhibition at 10 µM
Chain of 5-hydroxytryptamine receptor 1B (P28564 whole entry): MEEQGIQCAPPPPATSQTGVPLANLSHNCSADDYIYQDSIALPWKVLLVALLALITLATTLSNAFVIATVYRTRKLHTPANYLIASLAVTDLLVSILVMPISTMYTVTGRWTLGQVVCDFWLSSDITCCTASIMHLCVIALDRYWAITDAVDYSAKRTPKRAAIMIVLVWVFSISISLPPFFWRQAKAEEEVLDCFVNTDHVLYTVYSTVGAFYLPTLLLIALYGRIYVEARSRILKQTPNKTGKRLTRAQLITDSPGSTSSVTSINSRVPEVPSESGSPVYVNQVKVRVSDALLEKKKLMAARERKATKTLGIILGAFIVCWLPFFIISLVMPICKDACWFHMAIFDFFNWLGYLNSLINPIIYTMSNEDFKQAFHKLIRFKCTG

Adenosine receptor A1 = target: T3, Adenosine receptor A1 (Homo sapiens, UniProt P30542); assay type: cell membranes, CHO, Membrane; conditions: cho
T3 sequence (P30542 whole entry): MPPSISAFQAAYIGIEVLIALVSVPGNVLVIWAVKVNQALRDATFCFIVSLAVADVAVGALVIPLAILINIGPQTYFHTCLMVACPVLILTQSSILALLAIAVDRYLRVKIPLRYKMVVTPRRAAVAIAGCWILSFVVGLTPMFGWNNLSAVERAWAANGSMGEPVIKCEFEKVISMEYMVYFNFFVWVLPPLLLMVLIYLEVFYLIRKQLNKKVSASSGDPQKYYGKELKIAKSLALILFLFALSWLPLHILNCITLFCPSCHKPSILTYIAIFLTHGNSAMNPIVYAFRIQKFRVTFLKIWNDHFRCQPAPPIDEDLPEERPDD

Cytochrome P450 3A4 = Cytochrome P450 3A4 (Homo sapiens, UniProt P08684); conditions: bti-tn-5b1-4; also: in other assays of this panel Not Active means under 50% inhibition at 10 µM
Chain of Cytochrome P450 3A4 (P08684 whole entry): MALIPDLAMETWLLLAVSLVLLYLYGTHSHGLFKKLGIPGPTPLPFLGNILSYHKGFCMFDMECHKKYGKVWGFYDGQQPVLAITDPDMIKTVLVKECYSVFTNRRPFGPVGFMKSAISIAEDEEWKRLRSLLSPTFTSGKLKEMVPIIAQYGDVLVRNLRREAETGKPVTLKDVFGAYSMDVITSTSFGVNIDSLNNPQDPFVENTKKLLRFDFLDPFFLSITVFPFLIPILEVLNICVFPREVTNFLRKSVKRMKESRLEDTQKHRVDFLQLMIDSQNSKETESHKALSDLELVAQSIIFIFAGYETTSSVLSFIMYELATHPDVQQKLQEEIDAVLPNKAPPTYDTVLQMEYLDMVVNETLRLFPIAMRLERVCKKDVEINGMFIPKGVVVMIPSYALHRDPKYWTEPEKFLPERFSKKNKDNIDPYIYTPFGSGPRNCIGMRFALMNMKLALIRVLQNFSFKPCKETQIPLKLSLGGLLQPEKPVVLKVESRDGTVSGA

Estrogen receptor = target: T4, Estrogen receptor (Homo sapiens, UniProt P03372); conditions: sf9; also: in other assays of this panel Not Active means under 50% inhibition at 10 µM
T4 sequence (P03372 whole entry): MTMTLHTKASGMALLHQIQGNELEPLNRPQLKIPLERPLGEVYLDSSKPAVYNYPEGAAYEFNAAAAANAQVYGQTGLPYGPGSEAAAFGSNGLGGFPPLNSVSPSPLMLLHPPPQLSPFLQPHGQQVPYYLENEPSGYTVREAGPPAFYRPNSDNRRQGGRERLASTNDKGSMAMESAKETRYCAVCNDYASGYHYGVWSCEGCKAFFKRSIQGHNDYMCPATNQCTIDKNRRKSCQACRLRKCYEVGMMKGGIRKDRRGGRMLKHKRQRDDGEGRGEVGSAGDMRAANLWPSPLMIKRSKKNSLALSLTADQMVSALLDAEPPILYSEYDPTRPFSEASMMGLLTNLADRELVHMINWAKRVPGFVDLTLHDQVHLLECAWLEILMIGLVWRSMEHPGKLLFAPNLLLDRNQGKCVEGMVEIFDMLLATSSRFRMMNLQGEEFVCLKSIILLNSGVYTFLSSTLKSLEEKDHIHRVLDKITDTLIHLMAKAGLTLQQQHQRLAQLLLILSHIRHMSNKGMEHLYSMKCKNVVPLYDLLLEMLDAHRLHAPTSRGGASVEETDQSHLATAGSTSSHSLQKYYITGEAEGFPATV

[10] = target: Aldo-keto reductase family 1 member B1 (Rattus norvegicus, UniProt P07943); assay type: tissue-based, Lens of camera-type eye

Chain of Substance-P receptor (P25103 whole entry): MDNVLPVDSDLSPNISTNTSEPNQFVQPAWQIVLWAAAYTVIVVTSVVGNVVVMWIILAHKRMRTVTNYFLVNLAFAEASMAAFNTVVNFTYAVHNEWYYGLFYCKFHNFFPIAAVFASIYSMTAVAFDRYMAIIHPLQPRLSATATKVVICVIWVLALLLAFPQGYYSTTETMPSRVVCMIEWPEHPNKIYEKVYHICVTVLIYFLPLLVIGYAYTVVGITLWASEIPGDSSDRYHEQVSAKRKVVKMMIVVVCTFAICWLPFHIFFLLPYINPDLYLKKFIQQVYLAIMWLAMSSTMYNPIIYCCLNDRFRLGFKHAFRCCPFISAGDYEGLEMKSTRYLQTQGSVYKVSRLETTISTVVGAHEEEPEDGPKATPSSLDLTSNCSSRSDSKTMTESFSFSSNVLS

CC(/C=C1\SC(=S)N(CC(=O)O)C1=O)=C\c1ccccc1
Not Active: IC50 (Substance-P receptor) | IC50 [1] | IC50 (D(3) dopamine receptor) | IC50 [2] | Ki [2] | IC50 [3] | Ki [3] | IC50 [4] | Ki [4] | IC50 (Histamine H2 receptor) | IC50 [5] | Ki [5] | IC50 (Melanocortin receptor 4) | IC50 [6] | IC50 [7] | Ki [7] | IC50 [8] | Ki [8] | IC50 [9] | IC50 (Adenosine receptor A1) | IC50 (Cytochrome P450 3A4) | Ki (Cytochrome P450 3A4) | IC50 (Estrogen receptor)

O=C1NC(=O)C(c2ccccc2)(c2ccccc2)N1 [PHENYTOIN]
Not Active: IC50 [10] | IC50 (Substance-P receptor) | IC50 [1] | IC50 (D(3) dopamine receptor) | IC50 [2] | Ki [2] | IC50 [3] | Ki [3] | IC50 [4] | Ki [4] | IC50 (Histamine H2 receptor) | IC50 [5] | Ki [5] | IC50 (Melanocortin receptor 4) | IC50 [6] | IC50 [7] | Ki [7] | IC50 [8] | Ki [8] | IC50 [9] | IC50 (Adenosine receptor A1) | IC50 (Cytochrome P450 3A4) | Ki (Cytochrome P450 3A4)

CC1(C)S[C@@H]2[C@H](NC(=O)[C@H](N)c3ccc(O)cc3)C(=O)N2[C@H]1C(=O)O [AMOXICILLIN]
Not Active: IC50 [10] | IC50 (Substance-P receptor) | IC50 [1] | IC50 (D(3) dopamine receptor) | IC50 [2] | Ki [2] | IC50 [3] | Ki [3] | IC50 [4] | Ki [4] | IC50 (Histamine H2 receptor) | IC50 [5] | Ki [5] | IC50 (Melanocortin receptor 4) | IC50 [6] | IC50 [7] | Ki [7] | IC50 [8] | Ki [8] | IC50 [9] | IC50 (Adenosine receptor A1) | IC50 (Cytochrome P450 3A4) | Ki (Cytochrome P450 3A4)

NCC1(CC(=O)O)CCCCC1 [GABAPENTIN]
Not Active: IC50 [10] | IC50 (Substance-P receptor) | IC50 [1] | IC50 (D(3) dopamine receptor) | IC50 [2] | Ki [2] | IC50 [3] | Ki [3] | IC50 [4] | Ki [4] | IC50 (Histamine H2 receptor) | IC50 [5] | Ki [5] | IC50 (Melanocortin receptor 4) | IC50 [6] | IC50 [7] | Ki [7] | IC50 [8] | Ki [8] | IC50 [9] | IC50 (Adenosine receptor A1) | IC50 (Cytochrome P450 3A4) | Ki (Cytochrome P450 3A4)

CCc1ccc(C(=O)C(C)CN2CCCCC2)cc1 (stereo unspecified) [EPERISONE]
Not Active: IC50 [10] | IC50 (Substance-P receptor) | IC50 [1] | IC50 (D(3) dopamine receptor) | IC50 [2] | Ki [2] | IC50 [3] | Ki [3] | IC50 [4] | Ki [4] | IC50 (Histamine H2 receptor) | IC50 [5] | Ki [5] | IC50 (Melanocortin receptor 4) | IC50 [6] | IC50 [7] | Ki [7] | IC50 [8] | Ki [8] | IC50 [9] | IC50 (Adenosine receptor A1) | IC50 (Cytochrome P450 3A4) | Ki (Cytochrome P450 3A4)

Cc1[nH]cnc1CN1CCc2c(c3ccccc3n2C)C1=O [ALOSETRON]
Not Active: IC50 [10] | IC50 (Substance-P receptor) | IC50 [1] | IC50 (D(3) dopamine receptor) | IC50 [2] | Ki [2] | IC50 [3] | Ki [3] | IC50 [4] | Ki [4] | IC50 (Histamine H2 receptor) | IC50 [5] | Ki [5] | IC50 (Melanocortin receptor 4) | IC50 [6] | IC50 [7] | Ki [7] | IC50 [8] | Ki [8] | IC50 [9] | IC50 (Adenosine receptor A1) | IC50 (Cytochrome P450 3A4) | Ki (Cytochrome P450 3A4)

C/C=C1\[C@H]2C=C(C)C[C@]1(N)c1ccc(=O)[nH]c1C2 [HUPERZINE A]
Not Active: IC50 [10] | IC50 (Substance-P receptor) | IC50 [1] | IC50 (D(3) dopamine receptor) | IC50 [2] | Ki [2] | IC50 [3] | Ki [3] | IC50 [4] | Ki [4] | IC50 (Histamine H2 receptor) | IC50 [5] | Ki [5] | IC50 (Melanocortin receptor 4) | IC50 [6] | IC50 [7] | Ki [7] | IC50 [8] | Ki [8] | IC50 [9] | IC50 (Adenosine receptor A1) | IC50 (Cytochrome P450 3A4) | Ki (Cytochrome P450 3A4)
